Laboratory results published in PubChem BioAssay (NCI).
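Interpolation was linear, between the two tested concentrations surrounding the appropriate level; five concentrations were tested over 48 hours in 96-well plates. TGI marks complete inhibition of growth.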

Columns and labels:
Test in all cases: NCI anticancer screen, dose series, 48 h
786-0 renal = tested on: 786-0 renal
A549 NSCLC = tested on: A549 NSCLC
ACHN renal = tested on: ACHN renal
BT-549 breast = tested on: BT-549 breast
CAKI-1 renal = tested on: CAKI-1 renal
CCRF-CEM leukemia = tested on: CCRF-CEM leukemia
COLO 205 colon = tested on: COLO 205 colon
DU-145 prostate = tested on: DU-145 prostate
EKVX NSCLC = tested on: EKVX NSCLC
HCC-2998 colon = tested on: HCC-2998 colon
HCT-116 colon = tested on: HCT-116 colon
HCT-15 colon = tested on: HCT-15 colon
HL-60(TB) leukemia = tested on: HL-60(TB) leukemia
HOP-62 NSCLC = tested on: HOP-62 NSCLC
HOP-92 NSCLC = tested on: HOP-92 NSCLC
HS 578T breast = tested on: HS 578T breast
HT29 colon = tested on: HT29 colon
IGROV1 ovarian = tested on: IGROV1 ovarian
K-562 leukemia = tested on: K-562 leukemia
KM12 colon = tested on: KM12 colon
LOX IMVI melanoma = tested on: LOX IMVI melanoma
M14 melanoma = tested on: M14 melanoma
MALME-3M melanoma = tested on: MALME-3M melanoma
MCF7 breast = tested on: MCF7 breast
MDA-MB-231 breast = tested on: MDA-MB-231 breast
MDA-MB-435 = tested on: MDA-MB-435
MDA-N = tested on: MDA-N
MOLT-4 leukemia = tested on: MOLT-4 leukemia
NCI-H226 lung = tested on: NCI-H226 lung
NCI-H23 lung = tested on: NCI-H23 lung
NCI-H460 lung = tested on: NCI-H460 lung
NCI-H522 lung = tested on: NCI-H522 lung
NCI/ADR-RES ovarian = tested on: NCI/ADR-RES ovarian
OVCAR-4 ovarian = tested on: OVCAR-4 ovarian
OVCAR-5 ovarian = tested on: OVCAR-5 ovarian
OVCAR-8 ovarian = tested on: OVCAR-8 ovarian
PC-3 prostate = tested on: PC-3 prostate
RXF 393 renal = tested on: RXF 393 renal
SF-268 CNS = tested on: SF-268 CNS
SF-539 CNS = tested on: SF-539 CNS
SK-MEL-2 melanoma = tested on: SK-MEL-2 melanoma
SK-MEL-28 melanoma = tested on: SK-MEL-28 melanoma
SK-MEL-5 melanoma = tested on: SK-MEL-5 melanoma
SN12C renal = tested on: SN12C renal
SNB-19 CNS = tested on: SNB-19 CNS
SNB-75 CNS = tested on: SNB-75 CNS
SR leukemia = tested on: SR leukemia
SW-620 colon = tested on: SW-620 colon
T-47D breast = tested on: T-47D breast
TK-10 renal = tested on: TK-10 renal
U251 CNS = tested on: U251 CNS
UACC-257 melanoma = tested on: UACC-257 melanoma
UACC-62 melanoma = tested on: UACC-62 melanoma
UO-31 renal = tested on: UO-31 renal
A498 renal = tested on: A498 renal
OVCAR-3 ovarian = tested on: OVCAR-3 ovarian
RPMI-8226 leukemia = tested on: RPMI-8226 leukemia
SF-295 CNS = tested on: SF-295 CNS
SK-OV-3 ovarian = tested on: SK-OV-3 ovarian

O=c1[nH]cnc2c1ncn2[C@@H]1C[C@@H]1CO
TGI (786-0 renal): > 100 µM | TGI (A549 NSCLC): > 100 µM | TGI (ACHN renal): > 100 µM | TGI (BT-549 breast): > 100 µM | TGI (CAKI-1 renal): > 100 µM | TGI (CCRF-CEM leukemia): > 100 µM | TGI (COLO 205 colon): > 100 µM | TGI (DU-145 prostate): > 100 µM | TGI (EKVX NSCLC): > 100 µM | TGI (HCC-2998 colon): > 100 µM | TGI (HCT-116 colon): > 100 µM | TGI (HCT-15 colon): > 100 µM | TGI (HL-60(TB) leukemia): > 100 µM | TGI (HOP-62 NSCLC): > 100 µM | TGI (HOP-92 NSCLC): > 100 µM | TGI (HS 578T breast): > 100 µM | TGI (HT29 colon): > 100 µM | TGI (IGROV1 ovarian): > 100 µM | TGI (K-562 leukemia): > 100 µM | TGI (KM12 colon): > 100 µM | TGI (LOX IMVI melanoma): > 100 µM | TGI (M14 melanoma): > 100 µM | TGI (MALME-3M melanoma): > 100 µM | TGI (MCF7 breast): > 100 µM | TGI (MDA-MB-231 breast): > 100 µM | TGI (MDA-MB-435): > 100 µM | TGI (MDA-N): > 100 µM | TGI (MOLT-4 leukemia): > 100 µM | TGI (NCI-H226 lung): > 100 µM | TGI (NCI-H23 lung): > 100 µM | TGI (NCI-H460 lung): > 100 µM | TGI (NCI-H522 lung): > 100 µM | TGI (NCI/ADR-RES ovarian): > 100 µM | TGI (OVCAR-4 ovarian): > 100 µM | TGI (OVCAR-5 ovarian): > 100 µM | TGI (OVCAR-8 ovarian): > 100 µM | TGI (PC-3 prostate): > 100 µM | TGI (RXF 393 renal): > 100 µM | TGI (SF-268 CNS): > 100 µM | TGI (SF-539 CNS): > 100 µM | TGI (SK-MEL-2 melanoma): > 100 µM | TGI (SK-MEL-28 melanoma): > 100 µM | TGI (SK-MEL-5 melanoma): > 100 µM | TGI (SN12C renal): > 100 µM | TGI (SNB-19 CNS): > 100 µM | TGI (SNB-75 CNS): > 100 µM | TGI (SR leukemia): > 100 µM | TGI (SW-620 colon): > 100 µM | TGI (T-47D breast): > 100 µM | TGI (TK-10 renal): > 100 µM | TGI (U251 CNS): > 100 µM | TGI (UACC-257 melanoma): > 100 µM | TGI (UACC-62 melanoma): > 100 µM | TGI (UO-31 renal): > 100 µM

COC(=O)c1c2c(cc3c1CCC3)CCC2
TGI (786-0 renal): > 100 µM | TGI (A498 renal): 90.3 µM | TGI (A549 NSCLC): > 100 µM | TGI (ACHN renal): > 100 µM | TGI (BT-549 breast): > 100 µM | TGI (CAKI-1 renal): > 100 µM | TGI (CCRF-CEM leukemia): 53.3 µM | TGI (COLO 205 colon): > 100 µM | TGI (DU-145 prostate): > 100 µM | TGI (EKVX NSCLC): > 100 µM | TGI (HCC-2998 colon): > 100 µM | TGI (HCT-116 colon): > 100 µM | TGI (HCT-15 colon): > 100 µM | TGI (HL-60(TB) leukemia): 38.4 µM | TGI (HOP-62 NSCLC): > 100 µM | TGI (HS 578T breast): > 100 µM | TGI (HT29 colon): > 100 µM | TGI (IGROV1 ovarian): > 100 µM | TGI (K-562 leukemia): > 100 µM | TGI (KM12 colon): > 100 µM | TGI (LOX IMVI melanoma): > 100 µM | TGI (M14 melanoma): > 100 µM | TGI (MALME-3M melanoma): > 100 µM | TGI (MCF7 breast): > 100 µM | TGI (MDA-MB-231 breast): > 100 µM | TGI (MDA-MB-435): > 100 µM | TGI (MDA-N): > 100 µM | TGI (MOLT-4 leukemia): > 100 µM | TGI (NCI-H226 lung): > 100 µM | TGI (NCI-H23 lung): > 100 µM | TGI (NCI-H460 lung): > 100 µM | TGI (NCI-H522 lung): > 100 µM | TGI (NCI/ADR-RES ovarian): > 100 µM | TGI (OVCAR-3 ovarian): > 100 µM | TGI (OVCAR-4 ovarian): > 100 µM | TGI (OVCAR-5 ovarian): > 100 µM | TGI (OVCAR-8 ovarian): > 100 µM | TGI (PC-3 prostate): > 100 µM | TGI (RPMI-8226 leukemia): 52.4 µM | TGI (SF-268 CNS): > 100 µM | TGI (SF-295 CNS): > 100 µM | TGI (SF-539 CNS): > 100 µM | TGI (SK-MEL-2 melanoma): 64.3 µM | TGI (SK-MEL-28 melanoma): > 100 µM | TGI (SK-MEL-5 melanoma): 29.5 µM | TGI (SK-OV-3 ovarian): > 100 µM | TGI (SN12C renal): > 100 µM | TGI (SNB-19 CNS): > 100 µM | TGI (SNB-75 CNS): > 100 µM | TGI (SR leukemia): 44.8 µM | TGI (SW-620 colon): > 100 µM | TGI (T-47D breast): 43.9 µM | TGI (TK-10 renal): > 100 µM | TGI (U251 CNS): > 100 µM | TGI (UACC-257 melanoma): > 100 µM | TGI (UACC-62 melanoma): > 100 µM | TGI (UO-31 renal): > 100 µM

NCCCN1CCN(CCCNc2ccc3nnn4c5ccccc5c(=O)c2c34)CC1
TGI (786-0 renal): 33.1 µM | TGI (A498 renal): 40.6 µM | TGI (A549 NSCLC): > 100 µM | TGI (ACHN renal): 73.7 µM | TGI (BT-549 breast): 22.6 µM | TGI (CAKI-1 renal): 59.2 µM | TGI (CCRF-CEM leukemia): 35.7 µM | TGI (COLO 205 colon): 19.4 µM | TGI (DU-145 prostate): 57.6 µM | TGI (EKVX NSCLC): 41.1 µM | TGI (HCC-2998 colon): 29.4 µM | TGI (HCT-116 colon): 37.7 µM | TGI (HCT-15 colon): > 100 µM | TGI (HL-60(TB) leukemia): > 100 µM | TGI (HOP-62 NSCLC): > 100 µM | TGI (HOP-92 NSCLC): 96.6 µM | TGI (HS 578T breast): 81.8 µM | TGI (HT29 colon): 50.3 µM | TGI (IGROV1 ovarian): 33.9 µM | TGI (K-562 leukemia): > 100 µM | TGI (LOX IMVI melanoma): 26.8 µM | TGI (M14 melanoma): 38.4 µM | TGI (MALME-3M melanoma): 39.1 µM | TGI (MCF7 breast): 74.7 µM | TGI (MDA-MB-231 breast): 29.1 µM | TGI (MDA-MB-435): 60.1 µM | TGI (MDA-N): 31 µM | TGI (MOLT-4 leukemia): > 100 µM | TGI (NCI-H23 lung): 33.3 µM | TGI (NCI-H460 lung): 58.1 µM | TGI (NCI-H522 lung): 27.1 µM | TGI (NCI/ADR-RES ovarian): > 100 µM | TGI (OVCAR-3 ovarian): > 100 µM | TGI (OVCAR-4 ovarian): 33.1 µM | TGI (OVCAR-5 ovarian): > 100 µM | TGI (OVCAR-8 ovarian): > 100 µM | TGI (PC-3 prostate): 35.5 µM | TGI (RPMI-8226 leukemia): > 100 µM | TGI (SF-268 CNS): 75 µM | TGI (SF-295 CNS): 45.2 µM | TGI (SF-539 CNS): 36.2 µM | TGI (SK-MEL-2 melanoma): 36.1 µM | TGI (SK-MEL-28 melanoma): > 100 µM | TGI (SK-MEL-5 melanoma): 32.1 µM | TGI (SK-OV-3 ovarian): > 100 µM | TGI (SN12C renal): 30.7 µM | TGI (SNB-19 CNS): 46.4 µM | TGI (SNB-75 CNS): 48.3 µM | TGI (SR leukemia): > 100 µM | TGI (SW-620 colon): > 100 µM | TGI (T-47D breast): > 100 µM | TGI (TK-10 renal): > 100 µM | TGI (U251 CNS): > 100 µM | TGI (UACC-257 melanoma): > 100 µM | TGI (UACC-62 melanoma): 33.7 µM | TGI (UO-31 renal): 90.7 µM
